In ChEMBL document CHEMBL1140776, “Parasiticidal 2-alkoxy- and 2-aryloxyiminoalkyl trifluoromethanesulfonanilides” (2008):

What was measured:
Type in all cases: functional
Haemonchus contortus = test: Parasiticidal activity against Haemonchus contortus by larval assay
Rhipicephalus sanguineus [1] = test: Parasiticidal activity against Rhipicephalus sanguineus assessed as mortality after 24 hrs by brown dog tick assay; design: concentration or dose not given beside the values
Ctenocephalides felis [2] = test: Parasiticidal activity against Ctenocephalides felis assessed as mortality after 24 hrs by cat flea assay; design: concentration or dose not given beside the values
Ctenocephalides felis [3] = test: Parasiticidal activity against Ctenocephalides felis by cat flea assay
Rhipicephalus sanguineus [4] = test: Parasiticidal activity against Rhipicephalus sanguineus assessed per tick by brown dog tick assay

SMILES | LD99 (Haemonchus contortus) | Activity (Rhipicephalus sanguineus [1]) | Activity (Ctenocephalides felis [2]) | LC50 (Ctenocephalides felis [3]) | LD50 (Rhipicephalus sanguineus [4])
CC(C)/C(=N\Oc1ccc(Cl)cc1)c1cc(Cl)ccc1NS(=O)(=O)C(F)(F)F | 11 µM | 65% | 100% | 71 ng/cm2 | 1.7 µg
C/C(=N\OC(C)C)c1cc(Cl)ccc1NS(=O)(=O)C(F)(F)F |  | 95% | 100% |  | 
CC/C(=N\Oc1ccc(Cl)cc1)c1ccc(C(F)(F)F)cc1NS(=O)(=O)C(F)(F)F |  | 17% | 100% |  | 
C/C(=N\OCC1CCCC1)c1cc(Cl)ccc1NS(=O)(=O)C(F)(F)F | 7.5 µM | 100% | 97% | 18 ng/cm2 | 2.2 µg
C/C(=N\Oc1cccc(C(F)(F)F)c1)c1cc(Cl)ccc1NS(=O)(=O)C(F)(F)F | 0.83 µM |  | 96% |  | 
CC/C(=N\OCC1CCCCC1)c1ccc(C(F)(F)F)cc1NS(=O)(=O)C(F)(F)F |  | 17% | 97% |  | 
CC/C(=N\Oc1ccc(F)cc1)c1cc(Cl)ccc1NS(=O)(=O)C(F)(F)F | 3.5 µM | 92% | 100% | 35 ng/cm2 | 1.5 µg
CCC/C(=N\Oc1ccc(F)cc1)c1cc(Cl)ccc1NS(=O)(=O)C(F)(F)F |  |  | 36% |  | 
CC/C(=N\OC(C)(C)C)c1cc(Cl)ccc1NS(=O)(=O)C(F)(F)F |  | 90% | 100% | 43 ng/cm2 | 1.5 µg
C/C(=N\Oc1ccc(Cl)cc1)c1cc(Cl)ccc1NS(=O)(=O)C(F)(F)F | 1 µM |  | 90% |  | 
CCO/N=C(\C)c1cccc(OC)c1NS(=O)(=O)C(F)(F)F | >15 µM |  | 45% |  | 
O=S(=O)(Nc1ccc(Cl)cc1/C(=N/OCC1CCCCC1)c1ccccc1)C(F)(F)F |  | 52% | 8% |  | 
CC/C(=N\OCC1CC1)c1cc(Cl)ccc1NS(=O)(=O)C(F)(F)F | 36 µM | 100% | 100% | 8 ng/cm2 | 1.2 µg
CC/C(=N\OCc1ccc(Cl)c(Cl)c1)c1cc(Cl)ccc1NS(=O)(=O)C(F)(F)F | 1.3 µM |  | 100% |  | 
C/C(=N\Oc1cccc(Cl)c1)c1cc(Cl)ccc1NS(=O)(=O)C(F)(F)F | 3.8 µM | 47% | 100% |  | 
CC/C(=N\OCc1ccc(Cl)cc1)c1ccc(C(F)(F)F)cc1NS(=O)(=O)C(F)(F)F |  | 25% | 100% |  | 

SMILES | LD99 (Haemonchus contortus) | Activity (Rhipicephalus sanguineus [1]) | Activity (Ctenocephalides felis [2]) | LC50 (Ctenocephalides felis [3]) | LD50 (Rhipicephalus sanguineus [4])
C/C(=N\OCC(F)(F)F)c1cc(Cl)ccc1NS(=O)(=O)C(F)(F)F | 18 µM | 82% | 100% | 6 ng/cm2 | 0.94 µg
CC1(C)C(C=C(Cl)Cl)C1C(=O)OCc1cccc(Oc2ccccc2)c1 (stereo not given) |  |  |  |  | 0.14 µg
O=S(=O)(Nc1ccc(Cl)cc1/C=N/OCc1ccc(Cl)c(Cl)c1)C(F)(F)F | 1.4 µM |  | 42% |  | 
C/C(=N\OC1CCCC1)c1cc(Cl)ccc1NS(=O)(=O)C(F)(F)F |  | 100% | 100% |  | 
CC/C(=N\OCc1cccc(Cl)c1Cl)c1cc(Cl)ccc1NS(=O)(=O)C(F)(F)F | 0.63 µM |  | 63% |  | 
CC/C(=N\Oc1ccc(Br)cc1)c1cc(Cl)ccc1NS(=O)(=O)C(F)(F)F | 3.7 µM |  | 78% |  | 
CC/C(=N\OCC(F)(F)F)c1cc(Cl)ccc1NS(=O)(=O)C(F)(F)F |  | 80% | 100% |  | 
CCO/N=C(\C)c1cc(Br)ccc1NS(=O)(=O)C(F)(F)F | >13 µM | 100% | 100% | 11 ng/cm2 | 1.2 µg
C/C(=N\Oc1ccc(Cl)c(Cl)c1)c1cc(Cl)ccc1NS(=O)(=O)C(F)(F)F | 1.6 µM |  | 71% |  | 
CO/N=C(\C)c1cc(Cl)ccc1NS(=O)(=O)C(F)(F)F |  | 93% | 100% |  | 
CC/C(=N\OCc1ccc(Br)cc1)c1cc(Cl)ccc1NS(=O)(=O)C(F)(F)F | 1.8 µM | 58% | 78% |  | 
C/C(=N\OCc1ccc(Cl)cc1)c1cc(Cl)ccc1NS(=O)(=O)C(F)(F)F | 3 µM | 72% | 100% |  | 
CC/C(=N\OCC1CCCC1)c1cc(Cl)ccc1NS(=O)(=O)C(F)(F)F |  | 90% | 97% |  | 
CC/C(=N\Oc1cccc(C(F)(F)F)c1)c1cc(Cl)ccc1NS(=O)(=O)C(F)(F)F | 2 µM |  | 71% |  | 
CCC/C(=N\OC1CCCCC1)c1cc(Cl)ccc1NS(=O)(=O)C(F)(F)F |  |  | 43% |  | 
CC/C(=N\Oc1ccc(Cl)c(Cl)c1)c1cc(Cl)ccc1NS(=O)(=O)C(F)(F)F | 1.9 µM |  | 99% | 6 ng/cm2 | 
